Earlier results as cited in patent US20220395469A1, “TRANSDERMAL DRUG DELIVERY SYSTEM FOR KETAMINE” (GUANGZHOU DAZHOU BIOMEDICINE LTD., priority 2017, published 2022).

Columns and labels:
NMDA receptor = conditions: in vitro
[1] = not given; remark: listed apart in the source
[2] = three-compartment model, 70-kg human (Fanta et al.)

In the case of `CN[C@@]1(c2ccccc2Cl)CCCCC1=O` [R-ketamine], the “psychotomimetic side effects and abuse liability” value (Yang et al.) is given as “free of psychotomimetic side effects and abuse liability” and the antidepressant effectiveness (animal model studies, versus S-ketamine (Yang et al.)) is given as “more effective as an antidepressant than S-ketamine”.
In the case of `CN[C@]1(c2ccccc2Cl)CCCCC1=O` [S-ketamine], the “affinity on NMDA receptor binding relative to R-ketamine” value (NMDA receptor) is listed as roughly 4 fold.
For `CNC1(c2ccccc2Cl)CCCCC1=O` (centres unmarked) [ketamine], the absolute oral bioavailability ([1]; in humans) is given as 10-20%, the “systemic (primarily hepatic) clearance” value ([1]; in vivo) is given as “about 19 ml/min·kg” and the V1 [1, 2] is given as 133 L. For the same molecule, the clearance [1, 2] was 79.8 L/h, the “micro constant k12” value [1, 2] was 0.174 h⁻¹ and the “micro constant k13” value [1, 2] was 1.18 h⁻¹. For the same molecule, the “micro constant k21” value [1, 2] was 0.124 h⁻¹ and the “micro constant k31” value [1, 2] was 1.59 h⁻¹.
